ChEMBL document CHEMBL5463725, “Data for DCP probe BAY-277” (2023)

How the values were obtained:
[1] = biological target: T1, Muscarinic acetylcholine receptor M1 (Homo sapiens) (UniProt P11229); settings: Compound concentration 10.0 uM
T1 sequence (whole entry): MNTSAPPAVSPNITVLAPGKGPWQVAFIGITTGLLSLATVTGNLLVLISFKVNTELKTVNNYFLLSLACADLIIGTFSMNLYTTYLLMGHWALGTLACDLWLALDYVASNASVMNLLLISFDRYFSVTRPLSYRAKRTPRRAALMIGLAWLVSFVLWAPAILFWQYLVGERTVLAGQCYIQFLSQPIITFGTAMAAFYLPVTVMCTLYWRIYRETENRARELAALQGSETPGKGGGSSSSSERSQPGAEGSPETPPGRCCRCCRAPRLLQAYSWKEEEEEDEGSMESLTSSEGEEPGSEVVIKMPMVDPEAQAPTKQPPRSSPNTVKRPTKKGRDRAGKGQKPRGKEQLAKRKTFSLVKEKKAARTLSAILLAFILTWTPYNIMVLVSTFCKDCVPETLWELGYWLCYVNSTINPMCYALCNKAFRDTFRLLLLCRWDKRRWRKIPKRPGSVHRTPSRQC

[2] = biological target: D(4) dopamine receptor (Homo sapiens) (UniProt P21917); settings: Compound concentration 10.0 uM
Sequence of D(4) dopamine receptor (Homo sapiens) (P21917 whole entry): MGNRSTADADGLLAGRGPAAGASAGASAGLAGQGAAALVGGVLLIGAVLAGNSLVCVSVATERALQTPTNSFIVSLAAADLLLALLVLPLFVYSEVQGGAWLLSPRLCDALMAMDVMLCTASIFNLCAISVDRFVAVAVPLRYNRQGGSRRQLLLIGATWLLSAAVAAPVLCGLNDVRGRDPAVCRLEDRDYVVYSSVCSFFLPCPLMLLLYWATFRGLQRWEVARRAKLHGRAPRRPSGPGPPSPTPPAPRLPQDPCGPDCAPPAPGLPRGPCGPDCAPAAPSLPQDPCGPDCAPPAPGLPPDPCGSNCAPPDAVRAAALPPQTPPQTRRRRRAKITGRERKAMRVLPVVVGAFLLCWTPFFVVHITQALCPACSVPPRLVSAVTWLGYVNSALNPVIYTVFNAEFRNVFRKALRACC

D(3) dopamine receptor = D(3) dopamine receptor (Homo sapiens, UniProt P35462); assay: Inhibition of Dopamine D3 at 10.0 µM in the Eurofins Panlabs Safety Screen; settings: Compound concentration 10.0 uM
[3] = biological target: Monoamine oxidase B (MAO-B) (Homo sapiens, UniProt P27338); assay: Inhibition of Monoamine Oxidase MAO-B at 10.0 µM in the Eurofins Panlabs Safety Screen; settings: compound concentration 10 uM
[4] = biological target: Histamine H4 receptor (Homo sapiens) (UniProt Q9H3N8); settings: Compound concentration 10.0 uM
Sequence of Histamine H4 receptor (Homo sapiens) (Q9H3N8 whole entry): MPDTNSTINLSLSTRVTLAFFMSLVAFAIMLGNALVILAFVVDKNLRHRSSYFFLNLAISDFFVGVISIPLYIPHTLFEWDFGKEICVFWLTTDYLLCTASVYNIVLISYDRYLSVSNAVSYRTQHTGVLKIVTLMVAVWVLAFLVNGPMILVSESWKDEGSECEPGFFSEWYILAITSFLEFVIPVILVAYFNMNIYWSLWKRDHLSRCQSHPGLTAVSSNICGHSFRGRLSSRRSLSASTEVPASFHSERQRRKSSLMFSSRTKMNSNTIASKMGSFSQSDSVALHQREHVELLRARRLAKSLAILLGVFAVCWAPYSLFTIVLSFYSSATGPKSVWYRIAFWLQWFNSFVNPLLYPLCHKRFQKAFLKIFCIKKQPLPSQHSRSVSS

[5] = biological target: D(2) dopamine receptor (Homo sapiens) (UniProt P14416); assay: Inhibition of Dopamine D2L at 10.0 µM in the Eurofins Panlabs Safety Screen; settings: Compound concentration 10.0 uM
Sequence of D(2) dopamine receptor (Homo sapiens) (P14416 whole entry): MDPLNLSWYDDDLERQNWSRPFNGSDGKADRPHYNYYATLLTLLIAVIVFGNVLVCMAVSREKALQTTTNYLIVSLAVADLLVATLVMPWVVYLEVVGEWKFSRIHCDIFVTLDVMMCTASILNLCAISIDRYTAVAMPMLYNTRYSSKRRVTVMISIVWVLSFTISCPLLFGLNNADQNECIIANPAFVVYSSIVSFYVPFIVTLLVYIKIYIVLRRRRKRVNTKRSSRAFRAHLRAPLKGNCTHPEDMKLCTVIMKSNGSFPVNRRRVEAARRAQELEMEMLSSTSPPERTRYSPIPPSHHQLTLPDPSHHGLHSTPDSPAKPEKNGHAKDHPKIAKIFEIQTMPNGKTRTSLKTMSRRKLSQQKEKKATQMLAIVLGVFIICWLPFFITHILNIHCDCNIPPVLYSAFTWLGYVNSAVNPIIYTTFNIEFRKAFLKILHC

[6] = biological target: Sodium-dependent noradrenaline transporter (Homo sapiens) (UniProt P23975); settings: Compound concentration 10.0 uM
Sequence of Sodium-dependent noradrenaline transporter (Homo sapiens) (P23975 whole entry): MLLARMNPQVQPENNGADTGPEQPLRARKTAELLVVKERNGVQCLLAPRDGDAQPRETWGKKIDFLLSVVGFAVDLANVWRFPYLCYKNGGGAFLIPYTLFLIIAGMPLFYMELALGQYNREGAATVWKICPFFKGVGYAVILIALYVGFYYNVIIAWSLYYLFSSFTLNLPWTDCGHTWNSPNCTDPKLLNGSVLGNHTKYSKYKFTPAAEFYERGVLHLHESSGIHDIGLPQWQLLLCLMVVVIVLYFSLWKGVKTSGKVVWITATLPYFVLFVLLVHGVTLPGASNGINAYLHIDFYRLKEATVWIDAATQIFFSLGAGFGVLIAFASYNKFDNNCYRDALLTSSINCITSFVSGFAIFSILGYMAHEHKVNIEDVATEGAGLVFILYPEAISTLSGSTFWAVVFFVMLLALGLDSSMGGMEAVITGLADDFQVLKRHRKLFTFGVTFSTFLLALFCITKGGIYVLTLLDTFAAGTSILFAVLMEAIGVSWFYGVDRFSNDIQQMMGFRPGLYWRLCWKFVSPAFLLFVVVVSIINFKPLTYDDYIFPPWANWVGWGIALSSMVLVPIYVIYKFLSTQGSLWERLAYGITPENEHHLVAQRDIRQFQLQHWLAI

[7] = biological target: Endothelin-1 receptor (Homo sapiens) (UniProt P25101); assay: Inhibition of Endothelin ETA at 10.0 µM in the Eurofins Panlabs Safety Screen; settings: Compound concentration 10.0 uM
[8] = biological target: Alpha-1A adrenergic receptor (Homo sapiens) (UniProt P35348); settings: Compound concentration 10.0 uM
Sequence of Alpha-1A adrenergic receptor (Homo sapiens) (P35348 whole entry): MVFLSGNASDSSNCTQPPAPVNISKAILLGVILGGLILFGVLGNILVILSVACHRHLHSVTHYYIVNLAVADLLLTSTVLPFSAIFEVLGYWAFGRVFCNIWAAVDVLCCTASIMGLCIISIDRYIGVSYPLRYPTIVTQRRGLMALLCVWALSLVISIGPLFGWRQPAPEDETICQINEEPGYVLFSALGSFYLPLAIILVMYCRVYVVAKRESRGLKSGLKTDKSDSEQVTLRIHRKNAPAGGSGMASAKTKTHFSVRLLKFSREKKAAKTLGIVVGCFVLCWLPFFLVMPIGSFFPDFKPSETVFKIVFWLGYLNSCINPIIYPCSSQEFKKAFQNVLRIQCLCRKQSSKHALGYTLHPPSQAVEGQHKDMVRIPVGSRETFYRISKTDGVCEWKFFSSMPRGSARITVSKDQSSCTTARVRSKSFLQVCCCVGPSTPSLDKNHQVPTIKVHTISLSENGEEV

[9] = biological target: Aldo-keto reductase family 1 member B1 (Rattus norvegicus) (UniProt P07943); assay: Inhibition of Aldose Reductase at 10.0 µM in the Eurofins Panlabs Safety Screen; settings: Compound concentration 10.0 uM
[10] = biological target: Histamine H1 receptor (Homo sapiens) (UniProt P35367); assay: Inhibition of Histamine H1 at 10.0 µM in the Eurofins Panlabs Safety Screen; settings: Compound concentration 10.0 uM
Sequence of Histamine H1 receptor (Homo sapiens) (P35367 whole entry): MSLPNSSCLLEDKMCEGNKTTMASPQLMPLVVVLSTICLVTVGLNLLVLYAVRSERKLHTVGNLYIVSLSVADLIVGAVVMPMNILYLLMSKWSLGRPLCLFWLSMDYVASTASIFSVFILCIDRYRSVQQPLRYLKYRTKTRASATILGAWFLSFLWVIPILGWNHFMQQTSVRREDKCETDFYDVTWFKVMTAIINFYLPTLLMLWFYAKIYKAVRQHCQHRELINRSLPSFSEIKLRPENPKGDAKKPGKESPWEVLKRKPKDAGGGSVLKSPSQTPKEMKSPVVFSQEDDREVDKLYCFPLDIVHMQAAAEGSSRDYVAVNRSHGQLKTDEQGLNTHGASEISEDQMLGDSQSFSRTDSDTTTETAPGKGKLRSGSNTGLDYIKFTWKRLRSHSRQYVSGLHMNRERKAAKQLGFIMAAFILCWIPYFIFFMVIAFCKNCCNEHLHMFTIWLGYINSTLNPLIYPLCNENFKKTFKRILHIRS

[11] = biological target: Muscarinic acetylcholine receptor M3 (Homo sapiens, UniProt P20309); assay: Inhibition of Muscarinic M3 at 10.0 µM in the Eurofins Panlabs Safety Screen; settings: Compound concentration 10.0 uM
Sequence of Muscarinic acetylcholine receptor M3 (P20309 whole entry, looked up): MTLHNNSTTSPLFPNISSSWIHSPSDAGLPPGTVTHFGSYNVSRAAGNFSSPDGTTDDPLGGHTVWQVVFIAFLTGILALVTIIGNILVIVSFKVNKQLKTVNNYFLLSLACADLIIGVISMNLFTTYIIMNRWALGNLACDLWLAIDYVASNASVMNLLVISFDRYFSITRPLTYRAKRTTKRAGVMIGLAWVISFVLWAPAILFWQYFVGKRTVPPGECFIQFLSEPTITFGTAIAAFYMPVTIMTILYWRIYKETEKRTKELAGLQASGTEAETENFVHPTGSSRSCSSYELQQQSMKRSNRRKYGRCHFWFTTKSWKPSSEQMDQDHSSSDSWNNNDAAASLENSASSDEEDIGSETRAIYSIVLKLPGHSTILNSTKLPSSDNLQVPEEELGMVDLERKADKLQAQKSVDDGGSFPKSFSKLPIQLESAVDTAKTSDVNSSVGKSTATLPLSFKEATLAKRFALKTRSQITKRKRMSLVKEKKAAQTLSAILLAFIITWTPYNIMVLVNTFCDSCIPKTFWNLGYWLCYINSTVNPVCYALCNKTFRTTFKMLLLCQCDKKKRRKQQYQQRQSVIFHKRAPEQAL

[12] = biological target: D(2) dopamine receptor (Homo sapiens) (UniProt P14416); settings: Compound concentration 10.0 uM
[13] = biological target: Prostaglandin G/H synthase 2 (Homo sapiens) (UniProt P35354); assay: Inhibition of Cyclooxygenase COX-2 at 10.0 µM in the Eurofins Panlabs Safety Screen; settings: Compound concentration 10.0 uM
[14] = biological target: 5-hydroxytryptamine receptor 1D (Homo sapiens) (UniProt P28221); settings: Compound concentration 10.0 uM
Sequence of 5-hydroxytryptamine receptor 1D (Homo sapiens) (P28221 whole entry): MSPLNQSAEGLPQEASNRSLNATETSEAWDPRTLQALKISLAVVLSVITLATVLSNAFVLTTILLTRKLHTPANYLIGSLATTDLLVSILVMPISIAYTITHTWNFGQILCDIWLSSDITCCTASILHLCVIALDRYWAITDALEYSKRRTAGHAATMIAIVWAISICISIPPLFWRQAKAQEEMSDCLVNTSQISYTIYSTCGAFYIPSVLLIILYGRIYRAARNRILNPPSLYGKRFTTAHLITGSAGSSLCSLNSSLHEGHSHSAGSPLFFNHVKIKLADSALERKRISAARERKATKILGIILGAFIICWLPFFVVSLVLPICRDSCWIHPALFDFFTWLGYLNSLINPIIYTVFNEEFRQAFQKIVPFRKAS

[15] = biological target: Sodium-dependent dopamine transporter (Homo sapiens, UniProt Q01959); assay: GPCRScan assay: inhibition of DAT; design: radioligand conc. used [nm] 3.6 – 16.0, parental cells stable HEK
Sequence of Sodium-dependent dopamine transporter (Q01959 whole entry): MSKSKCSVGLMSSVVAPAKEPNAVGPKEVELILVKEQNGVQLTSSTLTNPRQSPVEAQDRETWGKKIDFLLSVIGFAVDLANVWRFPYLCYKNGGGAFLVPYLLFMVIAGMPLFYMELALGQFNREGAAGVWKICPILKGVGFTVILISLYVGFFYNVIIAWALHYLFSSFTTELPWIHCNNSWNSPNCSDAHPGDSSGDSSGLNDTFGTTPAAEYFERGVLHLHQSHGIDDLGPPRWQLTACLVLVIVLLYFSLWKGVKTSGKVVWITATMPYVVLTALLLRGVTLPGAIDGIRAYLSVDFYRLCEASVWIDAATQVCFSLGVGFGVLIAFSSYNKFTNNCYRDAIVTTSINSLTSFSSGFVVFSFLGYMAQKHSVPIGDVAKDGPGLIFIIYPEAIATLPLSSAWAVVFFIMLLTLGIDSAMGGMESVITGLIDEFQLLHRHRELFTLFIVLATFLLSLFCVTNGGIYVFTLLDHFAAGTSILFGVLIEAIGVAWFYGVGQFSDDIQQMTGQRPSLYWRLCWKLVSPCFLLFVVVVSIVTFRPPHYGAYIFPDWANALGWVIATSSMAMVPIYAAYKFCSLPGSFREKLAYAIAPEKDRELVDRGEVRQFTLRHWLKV

[16] = biological target: GABA-A receptor; anion channel (Rattus norvegicus) (UniProt O09028+P15431+P18506+P18508+P19969+P20236+P23574+P23576+P28471+P28473+P30191+P62813+P63079+P63138+Q91ZM7+Q9ES14); assay: Inhibition of GABAA, Chloride Channel, TBOB at 10.0 µM in the Eurofins Panlabs Safety Screen; assay type: protein-complex assay; settings: Compound concentration 10.0 uM
[17] = biological target: T2, 5-hydroxytryptamine receptor 2C (Homo sapiens) (UniProt P28335); settings: Compound concentration 10.0 uM
T2 sequence (whole entry): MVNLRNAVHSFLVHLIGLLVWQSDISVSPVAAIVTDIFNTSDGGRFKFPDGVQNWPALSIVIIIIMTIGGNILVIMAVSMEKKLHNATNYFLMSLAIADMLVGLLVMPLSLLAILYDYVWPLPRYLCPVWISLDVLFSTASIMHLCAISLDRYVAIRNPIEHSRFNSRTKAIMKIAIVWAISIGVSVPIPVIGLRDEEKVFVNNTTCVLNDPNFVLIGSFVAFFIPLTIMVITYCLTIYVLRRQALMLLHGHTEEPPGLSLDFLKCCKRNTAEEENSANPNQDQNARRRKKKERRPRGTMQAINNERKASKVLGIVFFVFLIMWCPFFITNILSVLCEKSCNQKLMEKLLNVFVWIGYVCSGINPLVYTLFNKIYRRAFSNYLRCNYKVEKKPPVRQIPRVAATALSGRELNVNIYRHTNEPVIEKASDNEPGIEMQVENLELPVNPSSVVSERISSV

[18] = biological target: T3, Muscarinic acetylcholine receptor M2 (Homo sapiens, UniProt P08172); assay: GPCRScan assay: inhibition of M2; design: radioligand conc. used [nm] 0.2 – 1.0, parental cells stable CHO
T3 sequence (P08172 whole entry): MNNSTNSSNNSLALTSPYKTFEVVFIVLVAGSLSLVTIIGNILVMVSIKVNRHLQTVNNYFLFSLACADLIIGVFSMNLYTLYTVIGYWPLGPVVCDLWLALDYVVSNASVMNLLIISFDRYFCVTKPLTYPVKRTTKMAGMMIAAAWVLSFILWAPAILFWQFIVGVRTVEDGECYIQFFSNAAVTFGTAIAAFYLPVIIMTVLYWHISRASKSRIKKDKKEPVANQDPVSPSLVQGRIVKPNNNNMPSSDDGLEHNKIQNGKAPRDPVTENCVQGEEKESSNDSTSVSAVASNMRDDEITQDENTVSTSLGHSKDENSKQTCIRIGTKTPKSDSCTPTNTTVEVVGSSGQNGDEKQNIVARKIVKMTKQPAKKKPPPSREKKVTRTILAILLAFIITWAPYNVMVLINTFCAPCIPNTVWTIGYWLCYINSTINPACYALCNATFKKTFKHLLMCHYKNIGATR

[19] = biological target: Androgen receptor (Homo sapiens) (UniProt P10275); assay: Inhibition of Androgen (Testosterone) at 10.0 µM in the Eurofins Panlabs Safety Screen; settings: Compound concentration 10.0 uM
[20] = biological target: Growth hormone secretagogue receptor type 1 (Homo sapiens) (UniProt Q92847); assay: Inhibition of Growth Hormone Secretagogue (GHS, Ghrelin) at 10.0 µM in the Eurofins Panlabs Safety Screen; settings: Compound concentration 10.0 uM
[21] = biological target: Histamine H2 receptor (Homo sapiens) (UniProt P25021); settings: Compound concentration 10.0 uM
Sequence of Histamine H2 receptor (Homo sapiens) (P25021 whole entry): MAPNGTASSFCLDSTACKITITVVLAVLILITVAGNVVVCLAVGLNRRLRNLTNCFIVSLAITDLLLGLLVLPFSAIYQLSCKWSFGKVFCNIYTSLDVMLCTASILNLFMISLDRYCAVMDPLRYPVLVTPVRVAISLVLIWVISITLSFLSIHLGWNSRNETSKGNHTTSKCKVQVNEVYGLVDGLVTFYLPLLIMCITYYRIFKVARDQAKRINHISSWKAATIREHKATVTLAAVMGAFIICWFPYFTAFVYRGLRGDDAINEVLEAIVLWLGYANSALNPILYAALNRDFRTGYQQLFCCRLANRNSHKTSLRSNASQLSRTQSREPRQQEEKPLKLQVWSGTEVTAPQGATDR

O=C1NCCCC1N1Cc2cc(C3CCN(C(=O)CCCCCN4CCC(c5ccc(Oc6nn7cnnc7c7c6CCCC7)cc5)CC4)CC3)ccc2C1=O (stereo not drawn)
inhibition [1]: 60.4%
inhibition [2]: 19.1%
inhibition (D(3) dopamine receptor): 76%
inhibition at 10 µM [3]: 30%
inhibition [4]: -3.44%
inhibition [5]: 22%
inhibition [6]: 4.02%
inhibition [7]: 3%
inhibition [8]: -1.93%
inhibition [9]: 29%
inhibition [10]: 22%
inhibition [11]: 29%
inhibition [12]: 21.7%
inhibition [13]: -7%
inhibition [14]: 37.4%
Ki ([15]; read-out: Ki): 4.81 µM
Ki ([15]; read-out: pKi (converted)): 4.47 µM
inhibition [16]: -5%
inhibition [17]: 3.95%
Ki ([18]; read-out: Ki): 1.07 µM
Ki ([18]; read-out: pKi (converted)): 1.05 µM
inhibition [19]: -2%
inhibition [20]: 5%
inhibition [21]: 42.1%

O=C1CCC(N2Cc3cc(C4CCN(C(=O)CCCCCN5CCC(c6ccc(Oc7nn8cnnc8c8c7CCCC8)cc6)CC5)CC4)ccc3C2=O)C(=O)N1 (stereo not drawn)
inhibition [1]: 71.3%
inhibition [2]: 14.3%
inhibition (D(3) dopamine receptor): 90%
inhibition at 10 µM [3]: 34%
inhibition [4]: -8.84%
inhibition [5]: 22%
inhibition [6]: 11.7%
inhibition [7]: -1%
inhibition [8]: 12.2%
inhibition [9]: 32%
inhibition [10]: 23%
inhibition [11]: 26%
inhibition [12]: 20.9%
inhibition [13]: -6%
inhibition [14]: 48.5%
Ki ([15]; read-out: Ki): 3.73 µM
Ki ([15]; read-out: pKi (converted)): 3.39 µM
inhibition [16]: -6%
inhibition [17]: 5.83%
Ki ([18]; read-out: Ki): 0.677 µM
Ki ([18]; read-out: pKi (converted)): 0.676 µM
inhibition [19]: -6%
inhibition [20]: 2%
inhibition [21]: 42.2%
